This is an account of results in US20260315436A1, “METHOD OF TREATING DISORDERS WITH SURF1 MALFUNCTION” (Cure Mito Foundation, priority 2023, published 2026).

Data set [1] concerns GM28010 SURF1 mutant fibroblasts. Briefly: Seahorse mitochondrial stress test, fibroblast cell line GM28010 (Experiment 2, combinations and single compounds). The conditions noted are these: 48 h. The data set is classed as cell-based, human. Here is the method:
(§1) In order to evaluate selected compounds' impact on mitochondrial function in patient-derived fibroblasts compared to controls, three seahorse assays were conducted, Exp. 1: Fibroblast cell line GM28010—single compounds; Exp. 2. Fibroblast cell line GM28010—combination of compounds+ Single compounds; and Exp. 3: Fibroblast cell line GM28012—single compounds. Seahorse XF24 Extracellular Flux Analyzers continuously measure oxygen concentration and proton flux in the cell supernatant over time (Wu et al., 2007). The oxygen concentration and proton flux measurements are converted in OCR and ECAR values. This enables a direct quantification of mitochondrial respiration and glycolysis. The aim of the seahorse assays is to evaluate the impact of selected compounds on mitochondrial function in patient-derived fibroblasts compared to controls. Compounds used in the seahorse assays include posacanazole, sertaconazole, glabridin, zinglibroside (ginsenoside Z R1), AM281, cysteamine bitrartate, PF-06447475, losmapimod, telepravir, miltefosine, incyclinide, poziotinib, and methylene blue.
(§2) • Basal Oxygen Consumption (OCR): This reflects the cellular oxygen usage under basal conditions, encompassing both energy production (ATP turnover) and background oxygen leak from the mitochondria. • Oligomycin Injection: Oligomycin is a compound that inhibits ATP synthase, an enzyme crucial for ATP production within mitochondria. • Oligomycin-resistant Respiration: After oligomycin injection, minimal oxygen consumption persists, representing non-ATP linked oxygen leak from the mitochondria, often termed proton leak. • ATP-linked Respiration: This value is derived by subtracting the oligomycin-resistant respiration from the basal OCR. It signifies the oxygen consumption specifically linked to ATP production through mitochondrial oxidative phosphorylation. • Mitochondrial Bioenergetic Efficiency: This parameter reflects the percentage decrease in oxygen consumption observed after oligomycin injection, indicating the mitochondria's efficiency in utilizing oxygen for ATP generation. • FCCP Injection: FCCP is a chemical that disrupts the link between mitochondrial electron transport and ATP production. • Maximal Respiration: Following FCCP injection, the highest oxygen consumption rate is measured, representing the maximum capacity of the mitochondria to utilize oxygen for respiration. • Spare Respiratory Capacity: This parameter is calculated by subtracting basal respiration from maximal respiration.
GM28010 is a primary human fibroblast cell line that was obtained from patients with SURF1 Leigh syndrome. It was purchased from the Coriell Cell Repositories (Camden, N.J., repository number GM28010).
GM00038 is a primary human fibroblast cell line purchased from the Coriell Cell Repositories (Camden, N.J.; repository number GM00038). GM00038 was used as a healthy control.
Fibroblasts were grown in glucose according to recommendation. Cells were plated in XF96 plates in culture medium and plated at 10,000 cells/well. The day after plating, cells were treated with compounds. Treatments completed in glucose medium Compounds were tested at for 48 hours. The compounds were incubated at (37 C, 5% CO2) until the day of the experiment.
The fibroblasts were run at passage numbers: GM28010 SURF1 Fibroblasts P5.
The Assay Medium was 10 mM glucose or galactose DMEM supplemented with 2 mM glutamine and 1 mM pyruvate. Injection Ports for basal glucose: Port A: 2 μM oligomycin; Port B: 2.5 μM FCCP; Port C: 4 μM FCCP; and Port D: 2 μM rotenone and antimycin A. The Data were normalized to cell number per well after the run. The Hoechst-stained nuclei were counted with a Operetta High-Content Imager.

Data set [2] has as its system GM28012 SURF1 fibroblasts. The experiment in a line: Seahorse mitochondrial stress test, fibroblast cell line GM28012 (Experiment 3, single compounds). The conditions noted are these: 48 h; for maximal respiration (maximal OCR): glucose and galactose conditions. The data set is classed as cell-based, human. Here is the method:
as §1, §2
GM28010 primary human fibroblasts obtained from patients with SURF1 Leigh syndrome were purchased from the Coriell Cell Repositories (Camden, N.J.; repository number GM28010).
GM00038 primary human fibroblasts purchased from the Coriell Cell Repositories (Camden, N.J., repository number GM00038) and were used as a healthy control.
Fibroblasts were grown in glucose according to recommendation. Cells were plated in XF96 plates in culture medium and plated at 10,000 cells/well. The day after plating, the cells were treated with the compounds. The treatments completed in glucose medium and galactose medium. The compounds were tested at for 48 hours. The compounds were incubated at (37 C, 5% CO2) until the day of the experiment. The fibroblasts were run at passage numbers: GM28012 SURF1 Fibroblasts P5.
The assay medium was 10 mM glucose or galactose DMEM supplemented with 2 mM glutamine and 1 mM pyruvate. Injection Ports for basal glucose: Port A: 2 μM oligomycin; Port B: 2.5 μM FCCP; Port C: 4 μM FCCP; and Port D: 2 μM rotenone and antimycin A.
The data were normalized to cell number per well after the run. The Hoechst-stained nuclei were counted with a Operetta High-Content Imager.

Data set [3] deals with shy1Δ knockout mutants. The experiment in a line: Yeast drug repurposing screen, shy1Δ knockout mutants (haploid/diploid not separated). It counts as cell-based. The conditions noted are these: FIG. 12, inactive statins; test not named. From the text:
An aim of the present disclosure is to identify SURF1 Leigh Syndrome drug repurposing clinical candidates using a rapid turnaround, multi-species phenotypic screening approach that starts with the development and phenotypic characterization of genetically personalized yeast strains—“patient avatars”—and culminates in a drug repurposing screen, a process previously published for PMM2-CDG in Lao et al., 2019 Feb 7; 9(2):413423. […] Slow growth can be rescued in a pathway-agnostic high-throughput chemical suppressor screen. As in the case of PMM2-CDG, the SURF1 yeast ortholog, gene identifier SHY1, is essential undergrowth conditions that require functional mitochondria, i.e., respiration. The yeast species Yarrowia lipolytica was used for the screen since it is an obligate aerobe (requires oxygen to grow), contains a fully functional electron transport chain, and has already been prototyped in a drug repurposing screen (Perlstein 2020). A 384-well-plate growth-based assay with appropriate positive and negative controls was designed and optimized for a drug repurposing screen (~5,000 compounds). The drug repurposing screen for mitochondrial diseases involving complex IV deficiency is described herein. A general yeast screening method was discussed in Perlstein, Drug repurposing for mitochondrial diseases using a pharmacological model of complex I deficiency in the yeast Yarrowia lipolytica, bioRxiv, (2020), see https://www.biorxiv.org/content/10.1101/2020.01.08.899666v1.
Yeast cells completely lacking SURF1 are unable to grow in conditions that require their mitochondria to produce energy. Knocking out the SURF1 ortholog in yeast—SHY1—results in loss of the ability of the knockout mutant to grow on a non-fermentable carbon source, e.g., lactate or glycerol, that requires functional mitochondria. A shy1Δ knockout mutant is incapable of growing on YEPG, or yeast media spiked with ethanol and glycerol as the sole non-fermentable carbon sources.
A unique hit signature was identified using the pilot screen of ~2,500 known drugs. A drug repurposing screen was performed. BY4741 and BY4742 are wildtype haploid controls, BY4743 is the wildtype diploid control. PY14 and PY15 are haploid shy1Δ knockout mutants of each yeast mating type. PY16 is the diploid SHY1/shy1Δ heterozygous mutant, which grows just like BY4743. PY17 is the diploid homozygous shy1Δ knockout mutant. FIG. 20.
FIG. 22, FIG. 23, FIG. 24A, FIG. 24B. It is thought that the hits act by stabilizing cytochrome c oxidase.
The discernible red triangles are the hits; the larger the triangles, the more statistically significant the result. […] FIG. 25A and FIG. 25B. Haploid and diploid SURF1 deficient mutants were screened. The positive control is a wildtype (unmutated) yeast strain. […]

The subject of data set [4] is GM28010 SURF1 mutant fibroblasts. The experiment in a line: Seahorse mitochondrial stress test, fibroblast cell line GM28010 (Experiment 1, single compounds). The data set is classed as cell-based, human. The conditions noted are these: 48 h, glucose and galactose conditions. Here is the method: as §1
Fibroblast cell line GM28010 is a primary human fibroblast cell line obtained from patients with SURF1 Leigh syndrome. It was purchased from the Coriell Cell Repositories (Camden, NJ, repository number GM28010). Cell line GM00038 was used as a healthy control for GM28010 and is a primary human fibroblast purchased from the Coriell Cell Repositories (Camden, NJ, repository number GM00038).
Fibroblasts were grown in glucose according to recommendation.
Cells were plated in XF96 plates in culture medium and were plated at 10,000 cells/well.
The day after plating, cells were treated with the compounds in Table 1. The treatments were completed in glucose medium and galactose medium. The compounds were tested at for 48 hours. The compounds were incubated at (37 C, 5% CO2) until the day of the experiment.
*Fibroblasts were run at passage numbers: GM28010 SURF1 Fibroblasts P5; GM00038F controls P9.
• Assay Medium: 10 mM glucose or galactose DMEM supplemented with 2 mM glutamine and 1 mM pyruvate. • Injection Ports for basal glucose: Port A: 2 μM oligomycin; Port B: 2.5 μM FCCP; Port C: 4 μM FCCP; and Port D: 2 μM rotenone and antimycin A.
Data were normalized to cell number per well after the run. The Hoechst-stained nuclei were counted with the Operetta High-Content Imager.
as §2

[5] abbreviates: combinations at 1 μM losmapimod, 10 μM Ginsenoside Z R1, 10 μM PF-06447475, single compounds 1, 5, 10 μM.
Setting [6] is: both glucose and galactose, listed as Cysteamine Bitrartate.
[7] abbreviates: glucose-cultured cells, listed as Telepravir.

For `NCCS` [cysteamine bitartrate], the “respiration (oxygen consumption rate)” value in data set [1] (setting [5]) is “did not alter oxygen consumption rates”. Besides, in data set [1] (higher concentrations), the “ATP production rate through glycolysis” value is recorded as “decreased”. Also, in data set [2], the “ATP production through OXPHOS” value is listed as “Dose-dependent increase”, the “ATP production through glycolysis” value was “decrease ATP production through glycolysis” and the “total ATP production rate” value is listed as “Dose-dependent increase”. In data set [2] (both glucose and galactose), the ATP-linked respiration result is “increased basal respiration and ATP-Linked respiration in a dose-dependent manner”; the basal respiration result was “increased basal respiration and ATP-Linked respiration in a dose-dependent manner”. Besides, in data set [2] (setting [6]), the ATP-linked respiration entry is “↑basal respiration and ATP-”; the basal respiration entry is “↑basal respiration and ATP-”. Further, in data set [2] (glucose-cultured cells), the glycolysis result is on record as “dose-dependent decrease”, the maximal respiration entry was “dose-dependent decrease” and the toxicity entry is recorded as “some toxicity”. Moreover, the “ATP production through glycolysis” value in data set [2] (listed as Cysteamine Bitrartate) is listed as “conditions. ↓ATP production”.

Regarding `CC[C@H](C)C(=O)O[C@H]1C[C@H](O)C=C2C=C[C@H](C)[C@H](CC[C@@H](O)C[C@@H](O)CC(=O)O)[C@H]21` [pravastatin], in data set [3], the activity of statins entry was “inactive”.

As to `CC[C@H](C)C(=O)O[C@H]1CCC=C2C=C[C@H](C)[C@H](CC[C@@H]3C[C@@H](O)CC(=O)O3)[C@H]21` [mevastatin], the activity of statins result in data set [3] is “inactive”.

Regarding `CN(C)c1ccc2nc3ccc(=[N+](C)C)cc-3sc2c1` [Methylene Blue, methylene blue], in data set [1] (setting [5]), the “ATP production rate through OXPHOS” value is “dose-dependent decrease in ATP production through OXPHOS”, the “respiration (oxygen consumption rate)” value is reported as “decreased oxygen consumption rates” and the “total ATP production rates” value is reported as “maintain ATP production rates”. Further, the “ATP production through glycolysis” value in data set [1] (combinations at 1 μM losmapimod, 10 μM Ginsenoside Z R1, single compounds 1, 5, 10 μM) is “increase in ATP production through glycolysis”.

Take `CCC[C@H](NC(=O)[C@@H]1[C@H]2CCC[C@H]2CN1C(=O)[C@@H](NC(=O)[C@@H](NC(=O)c1cnccn1)C1CCCCC1)C(C)(C)C)C(=O)C(=O)NC1CC1` [Telaprevir, telaprevir]: the respiration result in data set [4] and in data set [2] (galactose conditions) was “did not result in major changes” throughout. Besides, the “ATP production through OXPHOS” value in data set [2] is “Dose-dependent increase”; in data set [2] (glucose), “dose-dependent increase”; in data set [2] (glucose, listed as Telepravir), “dependent ↑ATP-Linked”. Besides, in data set [2], the “total ATP production rate” value is “without changes”. For the same compound, the ATP-linked respiration result is given as “dose-dependent increase” in data set [2] (glucose-cultured cells) and “dependent ↑ATP-Linked” in data set [2] (setting [7]). Moreover, the maximal respiration entry is recorded as “without any changes” in data set [2] (glucose-cultured cells) and “through OXPHOS, no change” in data set [2] (setting [7]).

In the case of `CC1(C)C=Cc2c(ccc3c2OC[C@@H](c2ccc(O)cc2O)C3)O1` [Glabridin, glabridin], the respiration entry in data set [4] and in data set [4] (listed as glabridin) was “did not result in major changes” in each case. The “maximal respiration (maximal OCR)” value in data set [2] is given as “↓ maximal OCR in both”; in data set [2] (listed as glabridin) it was “decreased maximal respiration”.
